Results reported in patent US8063049B2, “Inhibitors of MEK” (Ardea Biosciences, Inc., priority 2007, dated 2011).

Legend:
[1] = target: T1, Human GST-MEK1CA (constitutively active MEK1, Ser218Asp and Ser222Asp) (Homo sapiens, UniProt Q02750, S218D/S222D); assay: MEK1 enzymatic activity assay (33P incorporation, MEK1CA/ERK2/MBP); format: biochemical; conditions: MEK1CA with ERK2, MBP and [γ33P]ATP; 30 min preincubation, 60 min reaction
T1 construct: GST; made in house; host or cells: Escherichia coli
T1 sequence (Q02750 whole entry S218D/S222D): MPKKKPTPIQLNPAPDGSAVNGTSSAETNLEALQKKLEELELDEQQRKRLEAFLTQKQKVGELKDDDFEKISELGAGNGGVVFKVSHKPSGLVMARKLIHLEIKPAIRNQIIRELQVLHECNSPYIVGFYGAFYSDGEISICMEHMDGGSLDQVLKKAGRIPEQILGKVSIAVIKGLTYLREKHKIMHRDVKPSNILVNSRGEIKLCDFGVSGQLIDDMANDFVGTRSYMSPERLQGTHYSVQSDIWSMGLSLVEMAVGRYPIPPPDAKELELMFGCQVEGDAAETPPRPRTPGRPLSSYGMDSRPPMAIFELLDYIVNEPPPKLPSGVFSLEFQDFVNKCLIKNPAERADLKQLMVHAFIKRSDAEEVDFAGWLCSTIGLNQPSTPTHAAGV
Excerpt: Materials and preparation of reagents: Human GST-MEK1 and the constitutively […] active allele GST-MEK1^CA (harboring the mutations Ser218Asp and Ser222Asp) can be subcloned into the yeast expression vector pGEM4Z (Promega, Madison, Wis.) from the wild type human MEK1 cDNA. GST-MEK1CA was expressed in Escherichia coli and can be partially purified using Glutathione Sepharose 4B affinity resin (Amersham Pharmacia Biotech, Piscataway, N.J.). The ERK2 allele can be subcloned from MAPK2/Erk2 cDNA (wild type) in […] pUSEamp (Upstate Biotechnology, Inc., Waltham, Mass.) into the vector pET21a (Novagen, Madison, Wis.) resulting in an N-terminal histidine-tagged mouse ERK2 allele. ERK2 can be expressed and purified to homogeneity [Zhang, 1993 #33]. Myelin basic protein (MBP) can be purchased from Gibco BRL (Rockville, Md.). EasyTides adenosine 5′-triphosphate (ATP) ([γ-33P]) (NEN Perkin Elmer, Wellesley, Mass.) is the source of radiolabel for all kinase reactions. Activated Raf-1 (truncated) and activated MAPKinase 2/ERK2 can be purchased from Upstate, Inc. (Lake Placid, N.Y.). 4-20% Criterion Precast gels can be purchased from Bio-Rad (Hercules, Calif.).
Determination of enzymatic activity: Compounds are diluted from dimethylsulfoxide (DMSO) stocks into 1×HMNDE (20 mM HEPES pH 7.2, 1 mM MgCl2, 100 mM NaCl, 1.25 mM DTT, 0.2 mM EDTA). A typical 25-microliter assay contained 0.002 nanomoles MEK1^CA, 0.02 nanomoles ERK2, 0.25 nanomoles MBP, 0.25 nanomoles unlabeled ATP, and 0.1 μCi [γ33P] ATP. The screening assay essentially comprises four additions. Five μl of diluted compound are dispensed to 96-well assay plates. Ten μl of 2.5× enzyme cocktail (MEK1^CA and ERK2 only) are then added to each well followed by a preincubation for 30 minutes at ambient temperature. Ten μl of 2.5× substrate cocktail (labeled and unlabeled ATP plus MBP) are then added, followed by incubation for 60 minutes at ambient temperature. Finally, 100 μl of 10% trichloroacetic acid (TCA) are added and incubated for 30 minutes at room temperature to halt the reaction and precipitate radiolabeled protein products. Reaction products are harvested on glass fiber 96 well filter plates prewetted with water and 1% pyrophosphate. The filter plate is then washed 5 times with water. Water is displaced by absolute ethanol and the plate is allowed to air dry for 30 minutes at room temperature. A back seal is applied manually and 40 μl of scintillation cocktail are dispensed to each well. A top seal is applied and the plate is counted in the TopCount for two seconds per well.

[2] = test system: phosphorylated ERK in MDA-MB-231 breast cancer cells; assay: Western blotting for phosphorylated ERK in EGF-stimulated MDA-MB-231 cells; format: cell-based; conditions: Homo sapiens, 30 min compound, 100 ng/ml EGF for 5 min, phospho-ERK Western blot
Experimental: Effects of compounds in the cell can be determined by Western blotting for phosphorylated ERK. MDA-MB-231 breast cancer cells are plated in a 48 well plate at 20,000 cells per well and are grown in a 37° humidified CO2 incubator. The following day, the growth media (DMEM+10% fetal bovine serum) is removed and replaced with starve media (DMEM+0.1% fetal bovine serum). Cells are incubated in the starve media for sixteen hours and then treated with a range of compound concentrations for thirty minutes.
After incubation with compound, cells are stimulated with 100 ng/ml EGF for five minutes. The cells are then lysed and analyzed by Western blot using a monoclonal antibody raised to phosphorylated ERK. The signal is amplified using a secondary antibody conjugated to a near-IR dye and detected on a Licor Odyssey scanner.

Row | SMILES | IC50 [1] [nM] | EC50 [2] [nM]
1 | O=S(=O)(Nc1cn2ccnc2c(Cl)c1Nc1ccc(Br)cc1Cl)C1(CCO)CC1 [Example 10, N-(7-(4-bromo-2-chlorophenylamino)-8-chloroimidazo[1,2-a]pyridin-6-yl)-1-(2-hydroxyethyl)cyclopropane-1-sulfonamide] | 100 to 1000 | 10 to 100
2 | Cc1noc2c(F)c(Nc3ccc(Br)cc3Cl)c(NS(=O)(=O)C3CC3)cc12 [Example 6, N-(7-fluoro-6-(4-bromo-2-chlorophenylamino)-3-methylbenzo[d]isoxazol-5-yl)cyclopropanesulfonamide] | 100 to 1000 | 1 to 10
3 | O=S(=O)(Nc1cn2ccnc2c(Cl)c1Nc1ccc(Br)cc1Cl)C1CC1 [Example 9, N-(7-(4-bromo-2-chlorophenylamino)-8-chloroimidazo[1,2-a]pyridin-6-yl)cyclopropanesulfonamide] | 100 to 1000 | 10 to 100
4 | Cc1noc2c(F)c(Nc3ccc(I)cc3F)c(NS(=O)(=O)C3CC3)cc12 [Example 3, N-(7-fluoro-6-(2-fluoro-4-iodophenylamino)-3-methylbenzo[d]isoxazol-5-yl)cyclopropanesulfonamide] | 10 to 100 | 1 to 10
5 | Cc1noc2c(F)c(Nc3ccc(I)cc3F)c(NS(=O)(=O)C3(CCO)CC3)cc12 [Example 4, 1-(2-hydroxyethyl)-N-(7-fluoro-6-(2-fluoro-4-iodophenylamino)-3-methylbenzo[d]isoxazol-5-yl)cyclopropane-1-sulfonamide] | 10 to 100 | 1 to 10
6 | Cc1noc2c(F)c(Nc3ccc(I)cc3F)c(NS(=O)(=O)C3(CC(O)CO)CC3)cc12 (centres unmarked) [Example 5, 1-(2,3-dihydroxypropyl)-N-(7-fluoro-6-(2-fluoro-4-iodophenylamino)-3-methylbenzo[d]isoxazol-5-yl)cyclopropane-1-sulfonamide] | 1 to 10 | 0.1 to 1
7 | Cc1onc2c(F)c(Nc3ccc(I)cc3F)c(NS(=O)(=O)C3CC3)cc12 [Example 7, N-(7-fluoro-6-(2-fluoro-4-iodophenylamino)-3-methylbenzo[c]isoxazol-5-yl)cyclopropanesulfonamide] | 10 to 100 | 10 to 100
8 | Cn1cnc2c(F)c(Nc3ccc(I)cc3F)c(NS(=O)(=O)C3(CCO)CC3)cc21 [Example 2, N-(4-fluoro-5-(2-fluoro-4-iodophenylamino)-1-methyl-1H-benzo[d]imidazol-6-yl)-1-(2-hydroxyethyl)cyclopropane-1-sulfonamide] | 10 to 100 | 1 to 10

Other lines, results leading:

Row | IC50 [1] [nM] | EC50 [2] [nM] | SMILES
9 | 10 to 100 | 0.1 to 1 | Cc1c(Nc2ccc(I)cc2F)c(NS(=O)(=O)C2CC2)cn2ccnc12 [Example 14, N-(7-(2-fluoro-4-iodophenylamino)-8-methylimidazo[1,2-a]pyridin-6-yl)cyclopropanesulfonamide]
10 | 10 to 100 | 10 to 100 | Cc1c(Nc2ccc(I)cc2F)c(NS(=O)(=O)C2(CC(O)CO)CC2)cn2ccnc12 (centres unmarked) [Example 16, 1-(2,3-dihydroxypropyl)-N-(7-(2-fluoro-4-iodophenylamino)-8-methylimidazo[1,2-a]pyridin-6-yl)cyclopropane-1-sulfonamide]
11 | 10000 to 50000 | 100 to 1000 | Cc1nn(C)c2c(F)c(Nc3ccc(I)cc3F)c(NS(=O)(=O)C3CC3)cc12 [Example 30, N-(6-(2-fluoro-4-iodophenylamino)-7-fluoro-1,3-dimethyl-1H-indazol-5-yl)cyclopropanesulfonamide]
12 | 100 to 1000 | 10 to 100 | Cc1c(Nc2ccc(Br)cc2Cl)c(NS(=O)(=O)C2CC2)cn2ccnc12 [Example 17, N-(7-(4-bromo-2-chlorophenylamino)-8-methylimidazo[1,2-a]pyridin-6-yl)cyclopropanesulfonamide]
13 | 10000 to 50000 | 100 to 1000 | Cc1ncnc2c(F)c(Nc3ccc(I)cc3F)c(NS(=O)(=O)C3CC3)cc12 [Example 34, N-(7-(2-fluoro-4-iodophenylamino)-8-fluoro-4-methylquinazolin-6-yl)cyclopropanesulfonamide]
14 | 10 to 100 | 1 to 10 | O=S(=O)(Nc1cn2ccnc2c(Cl)c1Nc1ccc(I)cc1F)C1(CCO)CC1 [Example 12, N-(8-chloro-7-(2-fluoro-4-iodophenylamino)imidazo[1,2-a]pyridin-6-yl)-1-(2-hydroxyethyl)cyclopropane-1-sulfonamide]
15 | 1000 to 10000 | 1 to 10 | Cc1c2cc(NS(=O)(=O)C3CC3)c(Nc3ccc(I)cc3F)c(F)c2nn1C [Example 29, N-(6-(2-fluoro-4-iodophenylamino)-7-fluoro-2,3-dimethyl-2H-indazol-5-yl)cyclopropanesulfonamide]
16 | 1000 to 10000 | 10 to 100 | Cc1c(Nc2ccc(Br)cc2Cl)c(NS(=O)(=O)C2(CCO)CC2)cn2ccnc12 [Example 18, N-(7-(4-bromo-2-chlorophenylamino)-8-methylimidazo[1,2-a]pyridin-6-yl)-1-(2-hydroxyethyl)cyclopropane-1-sulfonamide]
